From ChEMBL document CHEMBL1156421, “ApoA-I mimetic peptides with differing ability to inhibit atherosclerosis also exhibit differences in their interactions with membrane bilayers” (J Biol Chem, 2007)

Key:
Mus musculus [1] = experiment: Cmax in apoE deficient C57BL/6J mouse at 20 ug, ip; type: ADME, organism-based; set-up: dose 20 ug, route intraperitoneal; conditions: in vivo, at 20 µg
[2] = Elimination half life in apoE deficient C57BL/6J mouse at 20 ug, ip; type: ADME, organism-based; conditions: in vivo
[3] = Time to Cmax in apoE deficient C57BL/6J mouse at 20 ug, ip; type: ADME, organism-based; conditions: in vivo
Mus musculus [4] = experiment: Antiinflammatory activity in apoE deficient C57BL/6J mouse assessed as inhibition of atherosclerosis lesion area at 20 ug/day, ip administered for 4 weeks measured after 6 weeks; type: functional

SMILES | Cmax (Mus musculus [1]) [%] | half-life [2] [min] | Tmax [3] [min] | Activity (Mus musculus [4]) [um2]
CC(C)C[C@H](NC(=O)[C@H](Cc1c[nH]c2ccccc12)NC(=O)[C@H](CC(=O)O)NC([14CH3])=O)C(=O)N[C@@H](CCCCN)C(=O)N[C@@H](C)C(=O)N[C@@H](Cc1ccccc1)C(=O)N[C@@H](Cc1ccc(O)cc1)C(=O)N[C@@H](CC(=O)O)C(=O)N[C@@H](CCCCN)C(=O)N[C@H](C(=O)N[C@@H](C)C(=O)N[C@@H](CCC(=O)O)C(=O)N[C@@H](CCCCN)C(=O)N[C@@H](Cc1ccccc1)C(=O)N[C@@H](CCCCN)C(=O)N[C@@H](CCC(=O)O)C(=O)N[C@@H](C)C(=O)N[C@@H](Cc1ccccc1)C(N)=O)C(C)C | 12.29 | 126 | 28.8 | 20400
CC(C)C[C@H](NC(=O)[C@H](Cc1ccccc1)NC(=O)[C@H](CCC(=O)O)NC(=O)[C@H](CCCCN)NC(=O)[C@H](Cc1ccccc1)NC(=O)[C@H](C)NC(=O)[C@H](CCC(=O)O)NC(=O)[C@H](C)NC(=O)[C@H](Cc1ccccc1)NC(=O)[C@H](CCCCN)NC(=O)[C@H](CC(=O)O)NC(=O)[C@H](Cc1ccc(O)cc1)NC(=O)[C@@H](NC(=O)[C@H](C)NC(=O)[C@H](CCCCN)NC(=O)[C@H](Cc1c[nH]c2ccccc12)NC(=O)[C@H](CCCCN)NC(=O)[C@H](CC(=O)O)NC([14CH3])=O)C(C)C)C(N)=O | 5.52 | 32.4 | 16.8 | 15800
